{"source": "patent US6653354B2", "about": "“NMDA antagonist comprising xenon” (priority 1999, dated 2003)", "key": {"[1]": {"system": "GABAergic synapses (GABAA receptors) of hippocampal neurons", "assay_type": "cell-based, rat", "description": "Hippocampal neurons were grown in culture using methods described previously (Segal M M et al, J. Neurophysiol. 1990, 64:1390-1399; Bekkers J M et al, Proc. Natl. Acad. Sci. U.S.A. 1991, 88:7834-7838; Mennerick S et al, J. Neurophysiol. 1995, 73:320-332). Briefly, hippocampi from Sprague Dawley rats (postnatal day 1-3) were dissected, roughly sliced and agitated in a papain-containing solution (20 units ml^−1) for 30 minutes at 37 EC. After washing with enzyme-free solution, the tissue was gently triturated with a fire-polished Pasteur pipette and the cells were plated out at a density of 8-10×10^4 cells ml^−1 and cultured (95% air/5% CO2) at 37° C. Glass coverslips used for culturing the cells were first coated with agarose (0.15% w/v) and then sprayed with a fine mist of poly-D-lysine (PDL) and collagen (0.1 mg ml^−1 PDL and 0.5 mg ml^−1 rat-tail collagen) from a glass micro-atomiser and sterilized by UV exposure. This produced micro-islands of permissive substrate with diameters of between 100 and 1000 μm. At 3-4 days after plating, when the glial cell layer was about 80% confluent, an anti-mitotic agent (cytosine β-D-arabinofuranoside, 5 μM) was added to arrest glial cell proliferation. Neuronal cultures were then allowed to mature for another 4-9 days. We used micro-islands which contained single isolated neurons whose axonal processes and dendritic trees formed multiple self-synapses (autapses). This procedure provided a large population of phenotypically identical monosynaptic connections.\nThe neurons were voltage-clamped using the whole-cell recording technique (Axopatch 200 amplifier, Axon Instruments, Foster City, Calif.). Electrodes were fabricated from borosilicate glass and typically had resistances of between 3-5 MΩ. Series resistance was compensated by 75-90%. Neurons were voltage-clamped at −60 mV, and synaptic responses were stimulated by a 2 ms depolarising pulse to +20 mV. […] For the synaptic measurements, data were sampled at 50 kHz, filtered at 20 kHz (−3 dB, 8-pole Bessel) and stored on a computer. The extracellular recording solution was (mM) 137 NaCl, 5 KCl, 3 CaCl2, 5 HEPES, 10 glucose, 0.001 glycine, 0.0001 strychnine-HCl, titrated to pH 7.3 with NaOH; and the intracellular (pipette) solution was (mM) 140 KCl, 4 NaCl, 0.5 EGTA, 2 MgATP, 10 HEPES, titrated to pH 7.25 with KOH.\nXenon solutions were prepared by first bubbling pure gases (oxygen, nitrogen or xenon) through fine sintered-glass bubblers in 250- or 500-ml Drechsel bottles filled with extracellular recording saline. […] (To minimise oxidization, the neurotoxins and neurotransmitters were excluded from the fully oxygenated saline.) During bubbling, the solutions were continually stirred at room temperature. These solutions were then mixed to achieve the desired final concentrations of the gases. Our control solutions usually contained 80% of the nitrogen solution and 20% of the oxygen solution, while our test solutions usually contained 80% of the xenon solution and 20% of the oxygen solution. Using a Bunsen water/gas partition coefficient of 0.0965 (Smith R A et al, Biochim. Biophys. Acta 1981, 645:327-338) we calculate that our standard test solution contained 3.4 mM xenon. Xenon (research grade, 99.993% pure) was supplied by BOC gases, Guildford, Surrey, UK. In all cases xenon was pre-applied to the neurons for at least 30 seconds before the initiation of synaptic currents.\nIn order to obtain an estimate for the total charge transfer, the EPSCs or IPSCs were numerically integrated."}, "[2]": {"system": "humans", "assay": "MAC / anaesthetic EC50 in humans", "assay_type": "in vivo", "conditions": "37° C.", "description": "The gaseous concentration of xenon which prevents a response to a painful stimulus (i.e. MAC) appears to vary among species, being 71% atm in humans (Cullen SC et al, Anesthesiology 1969, 31:305-309), 98% atm in rhesus monkeys (Whitehurst S L et al, J. Neurosurg. Anesthesiol. 1994, 6:275-279) and 161% atm in rats (Koblin D D et al, Anesth. Analg. 1998, 87:419-424). When these values are converted to free aqueous concentrations at 37° C. (Franks N P et al, Br. J. Anaesth. 1993, 71:65-76; Franks N P et al, Anesthesiology, 1996, 84:716-720) using an Ostwald water/gas partition coefficient of 0.0887 (Weathersby P K et al, Undersea Biomed. Res. 1980, 7:277-296), the values obtained are 2.5 mM, 3.4 mM and 5.6 mM for humans, monkeys and rats respectively, with the average value being 3.8 mM. For the experiments described herein, performed at room temperature, the concentration of xenon present in the standard test solution was 3.4 mM. […] This is illustrated with representative traces in FIG. 2."}, "[3]": {"conditions": "inhibitory currents + 3.4 mM xenon"}}, "note": "Entries after “also recorded” stand apart in the source; their conditions may differ."}
{"smiles": "[Xe]", "note": "[xenon]", "values": [{"measurement": "effect on inhibitory (GABAergic) postsynaptic currents", "setting": "[1]; 3.4 mM xenon", "result": "negligible effects; also recorded: affected neither the peak value, nor the time course; also recorded: no significant effect"}, {"measurement": "Ipeak % change (means ± SEM)", "setting": "[1]; inhibitory currents + 3.4 mM (~1 MAC) xenon", "result": "−3.1 ± 2.2", "unit": "%"}, {"measurement": "Decay half-time % change (means ± SEM)", "setting": "[1]; [3]", "result": "−3.4 ± 2.4", "unit": "%"}, {"measurement": "Ifast % change (means ± SEM)", "setting": "[1]; [3]", "result": "−4.3 ± 2.8", "unit": "%"}, {"measurement": "Islow % change (means ± SEM)", "setting": "[1]; [3]", "result": "18.8 ± 12.4", "unit": "%"}, {"measurement": "Qfast % change (means ± SEM)", "setting": "[1]; [3]", "result": "1.5 ± 7.2", "unit": "%"}, {"measurement": "Qslow % change (means ± SEM)", "setting": "[1]; [3]", "result": "12.6 ± 8.4", "unit": "%"}, {"measurement": "Total charge transfer % change (means ± SEM)", "setting": "[1]; [3]", "result": "−2.3 ± 3.9", "unit": "%"}, {"measurement": "τfast % change (means ± SEM)", "setting": "[1]; [3]", "result": "−1.3 ± 3.5", "unit": "%"}, {"measurement": "τslow % change (means ± SEM)", "setting": "[1]; [3]", "result": "0.8 ± 6.0", "unit": "%"}, {"measurement": "MAC converted to free aqueous concentration", "setting": "[2]", "result": 2.5, "unit": "mM"}]}
